According to patent US20250050671A1, “THERMOSENSITIVE RECORDING LAYER FORMING LIQUID, THERMOSENSITIVE RECORDING MEDIUM AND PRODUCTION METHOD THEREOF, AND IMAGE RECORDING METHOD” (Ricoh Company, Ltd., priority 2021, published 2025):

Test: Measurement of solubility of electron-accepting compound to solvent (saturated solution, gravimetric)
Assay type: physicochemical
Conditions: for Electron-accepting compound Solubility to ethanol: Table 2, repeated per forming liquid, 20° C.; for Solubility, alcohol solvent ethanol / Solubility, ester solvent ethyl acetate / Solubility, alcohol solvent isopropyl alcohol / Solubility, alcohol solvent methanol / Solubility, ketone solvent methyl ethyl ketone / Solubility, aromatic solvent toluene: saturated solution at 20° C.±3° C.
Description: <Measurement of Solubility of Electron-Accepting Compound to Solvent> […]
(2) While stirring a stirrer or a stirring rod, an electron-accepting compound was added gradually until insoluble matter of the electron-accepting compound appears at the bottom of the beaker.
(3) The resultant was left to stand for 1 hour or longer with a lid placed on top of the beaker.
(4) If the insoluble matter was completely disappeared by stirring with the stirring rod, the processes (2) to (4) were repeated.
(5) If the insoluble matter was remained after standing for 1 hour or longer, it was determined that preparation of a saturated solution was completed.
A weight (A) of an aluminium cup was weighed with the minimum unit of 1 mg or less.
The part of the transparent supernatant liquid of the saturated solution prepared in 1 was collected by a pipette, and the collected liquid was placed in the aluminium cup (about 0.8 g to about 1.3 g in weight) and a weight of the liquid was weighed with the minimum unit of 1 mg or less.
The aluminium cup in which the liquid was collected was placed in a dryer (120° C.±10° C.). Alternatively, the aluminium cup in which the liquid was collected is placed on a hot plate (120° C.±10° C.) in an area where a local ventilation was installed.
The solvent was evaporated from the liquid for 25 minutes or longer (a lid was placed to prevent inclusion of dusts when a hot plate was used).
The aluminium cup was removed from the drier or hot plate, and was left to stand for 1 minute or longer indoor, followed by weighing the total amount (C) with a unit of 1 mg or less.

SMILES	Electron-accepting compound Solubility to ethanol	Solubility, alcohol solvent ethanol	Solubility, ester solvent ethyl acetate	Solubility, alcohol solvent isopropyl alcohol	Solubility, alcohol solvent methanol	Solubility, ketone solvent methyl ethyl ketone	Solubility, aromatic solvent toluene
Cc1ccc(S(=O)(=O)Oc2cccc(NC(=O)Nc3cccc(OS(=O)(=O)c4ccc(C)cc4)c3)c2)cc1 [Electron-Accepting Compound 5, N,N′-di-[3-(p-toluenesulfonyloxy)phenyl]urea]	0.1 % by mass	0.1 % by mass	1.3 % by mass	0.1 % by mass	0.1 % by mass	11.3 % by mass	0.1 % by mass
Cc1ccc(S(=O)(=O)Oc2cccc(NC(=O)Nc3ccccc3)c2)cc1 [Electron-Accepting Compound 3]	0.6 % by mass	0.6 % by mass	1.6 % by mass	0.8 % by mass	0.6 % by mass	8.1 % by mass	0.1 % by mass
O=S(=O)(c1ccc(O)cc1)c1ccc(O)cc1 [Electron-Accepting Compound 6, 4,4′-sulfonylbisphenol, reference compound]	34.1 % by mass	34.1 % by mass	9.7 % by mass	34.1 % by mass	33.7 % by mass	36.5 % by mass	0.1 % by mass
Oc1ccc(C2(c3ccc(O)cc3)c3ccccc3-c3ccccc32)cc1 [Electron-Accepting Compound 1, 9,9-Bis(4-hydroxyphenyl)fluorene]	4.7 % by mass	4.7 % by mass	9.0 % by mass	4.5 % by mass	24.8 % by mass	30.2 % by mass	0.7 % by mass
Cc1ccc(S(=O)(=O)NC(=O)Nc2cccc(OS(=O)(=O)c3ccc(C)cc3)c2)cc1 [Electron-Accepting Compound 4, N-p-toluenesulfonyl-N′-3-(p-toluenesulfonyloxyphenyl)urea]	0.4 % by mass	0.4 % by mass	2.1 % by mass	0.4 % by mass	0.8 % by mass	12.7 % by mass	0.1 % by mass
